Article PMC10059083, “Design, Synthesis, and Biological Evaluation of Novel Hydroxamic Acid-Based Organoselenium Hybrids” (Pharmaceuticals, 2023)
Like-named read-outs stand apart in the source and are kept apart here.

Legend:
[1] = system: MCF-7 cells; assay: MTT antiproliferative assay, MCF-7 cells; type: cell-based; conditions: for IC50: Homo sapiens, MCF7, 24 h, read-out: MCF7 IC50; for MCF7 TI (therapeutic index): ratio of IC50 against WI38 cells to IC50 against MCF-7 cells
Description: (§1) Recently, OSe agents have attracted interest due to their potential chemoprotective and antitumor properties. […] Therefore, we estimated the OSe agents’ antiproliferative activities against different cancer cells, i.e., MCF-7 and HepG2 cells and healthy lung fibroblast WI-38 cells, using the MTT assay. The drug doxorubicin was employed as the standard. The corresponding therapeutic indices (TI) are described as the proportion of the WI38 cells IC50 to the IC50 of the cancer cell (e.g., MCF-7 and HepG2) (Table 1).
(§2) The products’ anticancer activity was examined using the MTT assay against breast (MCF-7) carcinoma cells, liver (HepG2), and normal WI-38 cells, following the previously reported method. Experimental details can be found in the Supplementary Materials.
(§3) 1.1. The biological assays
(§4) 1.1.1. The anticancer activity
(§5) The breast adenocarcinoma (MCF-7), Hepatocellular carcinoma (HEPG-2), and normal fibroblast (WI-38) cells were obtained from ATCC via Holding company for biological products and vaccines (VACSERA), Cairo, Egypt. The reagents […] medium, MTT, DMSO, and fetal bovine serum was obtained from Sigma Aldrich. Dulbecco’s modified Eagle’s medium was used as the culture medium for the cells, and the cytotoxicity was evaluated using the reported MTT assay. Doxorubicin was used as the positive reference, and the IC50 values were obtained from the corresponding dose-response curve.
(§6) This colorimetric assay is based on converting the yellow tetrazolium bromide (MTT) to a purple formazan derivative by mitochondrial succinate dehydrogenase in viable cells. Cell lines were cultured in […] medium with 10% fetal bovine serum. Antibiotics added were 100 units/ml penicillin and 100µg/ml streptomycin at 37 C in a 5% Co2 incubator. The cell lines were seeded in a 96-well plate at a density of 1.0x10^4 cells/well. at 37 C for 48 h under 5% Co2. After incubation, the cells were treated with different concentrations of compounds and incubated for 13 […]
(§7) Finally, dimethyl sulfoxide (DMSO) in the volume of 100 µl is added to each well to dissolve the purple formazan formed. The colorimetric assay is measured and recorded at an absorbance of 570 […]
(§8) The percentage of the relative cell viability was calculated as (A570 of treated samples/A570 of the untreated sample) X 100. […]

[2] = system: C. albicans; assay: Agar diffusion assay, C. albicans; type: cell-based, Candida albicans; conditions: for zone of inhibition at 20 µM: Candida albicans, read-out: C. albicans ZID (inhibition zone diameter); for C. albicans IA% (activity index): ratio of inhibition zone of compound to that of positive control (clotrimazole)
[3] = system: S. aureus; assay: Agar diffusion assay, S. aureus; type: cell-based; conditions: Staphylococcus aureus; 6-mm disks soaked with 20 μM of the OSe agents; read-out: S. aureus ZID (inhibition zone diameter)
[4] = system: HepG2 cells; assay: MTT antiproliferative assay, HepG2 cells; type: cell-based; conditions: for IC50: Homo sapiens, read-out: HepG2 IC50; for HepG2 TI (therapeutic index): ratio of IC50 against WI38 cells to IC50 against HepG2 cells
Description: Recently, OSe agents have attracted interest due to their potential chemoprotective and antitumor properties. We have developed several OSe compounds with promising antioxidant, antimicrobial, and antitumor properties. Therefore, we estimated the OSe agents’ antiproliferative activities against different cancer cells, i.e., MCF-7 and HepG2 cells and healthy lung fibroblast WI-38 cells, using the MTT assay. The drug doxorubicin was employed as the standard. The corresponding therapeutic indices (TI) are described as the proportion of the WI38 cells IC50 to the IC50 of the cancer cell (e.g., MCF-7 and HepG2) (Table 1).
as §2, §3, §4, §5, §6
Finally, dimethyl sulfoxide (DMSO) in the volume of 100 µl is added to each well to dissolve the purple formazan formed. The colorimetric assay is measured and recorded at an absorbance of 570 nm using a plate reader (EXL 800, USA). The percentage of the relative cell viability was calculated as (A570 of treated samples/A570 of the untreated sample) X 100. […]

[5] = system: S. aureus; assay: Agar diffusion assay, S. aureus; type: cell-based, Staphylococcus aureus; design: concentration or dose not given beside the values; conditions: ratio of inhibition zone of compound to that of positive control (ampicillin)
Description: (§9) The encouraging antitumor properties of the OSe compounds motivated us to evaluate their corresponding antimicrobial activities against the C. albicans fungal strain, S. aureus Gram-positive bacteria, and E. coli Gram-negative bacteria. Therefore, we applied the agar diffusion and minimum inhibitory concentration (MIC) methods using clotrimazole antifungal and ampicillin antibacterial drugs as standards.
The products’ antimicrobial properties were examined according to the previously reported method, via agar well diffusion assay against E. coli, S. aureus, and C. albicans. A microdilution method was also used to record MICs (M), following the previously reported procedure. Experimental details can be found in the Supplementary Materials. […]
(§10) 1.1.2. The antimicrobial activity
The antimicrobial activities of the OSe compounds were evaluate d against C. albicans yeast as well as E. coli gram-negative and S. aureus gram-positive bacteria employing the agar well diffusion assay.
Briefly, a concentration of 1 mM was prepared for each compound by dissolving in DMSO. Paper discs of standard size […] were sterilized in an autoclave and soaked in 9 µL of the test compounds, and placed in the Petri dishes, which in turn contain a nutrient media (agar 9 g, peptone 5 g, and beef extract 3 g) seeded with the dedicated strain. Incubation lasted for 13 h at 36 0C.
Experiments were replicated three times and the antifungal clotrimazole and antibiotic ampicillin […]

[6] = system: E. coli; assay: Agar diffusion assay, E. coli; type: cell-based, Escherichia coli; conditions: for E. coli ZID (inhibition zone diameter): 6-mm disks soaked with 20 μM of the OSe agents; for E. coli IA% (activity index): ratio of inhibition zone of compound to that of positive control (ampicillin)
Description: as §9
The products’ antimicrobial properties were examined according to the previously reported method, via agar well diffusion assay against E. coli, S. aureus, and C. albicans. A microdilution method was also used to record MICs (M), following the previously reported procedure. Experimental details can be found in the Supplementary Materials.
1.1. […]
as §10
The antimicrobial activities of the OSe compounds were evaluate d against C. albicans yeast as well as E.
coli gram-negative and S. aureus gram-positive bacteria employing the agar well diffusion assay. […]
5 g, and beef extract 3 g) seeded with the dedicated strain. Incubation lasted for 13 h at 36 0C.
Experiments were replicated three times and the antifungal clotrimazole and antibiotic ampicillin
1.1.3. […]

[7] = system: WI-38 cells; assay: MTT cytotoxicity assay, normal lung fibroblast WI-38 cells; type: cell-based; conditions: Homo sapiens, WI-38, 24 h, read-out: WI38 IC50
Description: as §1, §2, §3, §4, §5, §6, §7, §8

Compound	IC50 [1]	MCF7 TI (therapeutic index) [1]	zone of inhibition at 20 µM [2]	C. albicans IA% (activity index) [2]	zone of inhibition at 20 µM [3]	IC50 ([4]; HepG2, 24 h)	HepG2 TI (therapeutic index) [4]	S. aureus IA% (activity index) [5]	E. coli ZID (inhibition zone diameter) [6]	E. coli IA% (activity index) [6]	IC50 [7]	IC50 ([4]; MTT bioassay, HepG2 cells, 24 h incubation)
O=C(O)C=CC(=O)Nc1ccc([Se]CC(=O)NOCc2ccccc2)cc1 [Compound 12, 4-((4-((2-((Benzyloxy)amino)-2-oxoethyl)selanyl)phenyl)amino)-4-oxobut-2-enoic Acid]	63 ± 3.8 µM	0.6	10 mm	41.7%	5 mm	72.9 ± 3.7 µM	0.5	23.8%	4 mm	17.4%	36.5 ± 2.4 µM	
O=C(O)CCC(=O)Nc1ccc([Se]CC(=O)NOCc2ccccc2)cc1 [Compound 11, 4-((4-((2-((Benzyloxy)amino)-2-oxoethyl)selanyl)phenyl)amino)-4-oxobutanoic Acid]	35 ± 2.5 µM	1.5	13 mm	54.2%	10 mm	48.8 ± 2.8 µM	1.1	47.6%	7 mm	30.4%	52.5 ± 3.2 µM	
O=C(C[Se]c1ccc(N=Nc2ccc(O)cc2)cc1)NOCc1ccccc1 [Compound 16, N-(benzyloxy)-2-((4-((4-hydroxyphenyl)diazenyl)phenyl)selanyl)acetamide]	33.7 ± 2.4 µM	1.9	16 mm	66.7%	11 mm	26.5 ± 2 µM	2.4	52.4%	9 mm	39.1%	64.2 ± 3.9 µM	
CC1(C)S[C@@H]2[C@H](NC(=O)[C@H](N)c3ccccc3)C(=O)N2[C@H]1C(=O)O [Ampicillin, ampicillin, reference compound]					21 mm			100%	23 mm	100%		
O=C(C[Se]c1ccc(NC(=O)CCl)cc1)NOCc1ccccc1 [Compound 14, N-(benzyloxy)-2-((4-(2-chloroacetamido)phenyl)selanyl)acetamide]	87.4 ± 4.1 µM	1.1	4 mm	16.7%		> 100 µM					> 100 µM	
CC(=O)Nc1ccc([Se]CC(=O)NOCc2ccccc2)cc1 [Compound 9, 2-((4-Acetamidophenyl)selanyl)-N-(benzyloxy)acetamide]	45.6 ± 2.9 µM	1.9	9 mm	37.5%	7 mm	53 ± 3.2 µM	1.6	33.3%	6 mm	26.1%	84.8 ± 4.8 µM	
COc1cccc2c1C(=O)c1c(O)c3c(c(O)c1C2=O)C[C@@](O)(C(=O)CO)C[C@@H]3O[C@H]1C[C@H](N)[C@H](O)[C@H](C)O1 [Adriamycin, doxorubicin, reference compound]												4.5 ± 0.2 µM
CCOC(=O)C(C#N)=NNc1ccc([Se]CC(=O)NOCc2ccccc2)cc1 [Compound 15, Ethyl 2-(2-(4-((2-((benzyloxy)amino)-2-oxoethyl)selanyl)phenyl)hydrazineylidene)-2-cyanoacetate]	21.6 ± 1.6 µM	3.8	20 mm	83.3%	15 mm	15.8 ± 1.3 µM	5.2	71.4%	12 mm	52.2%	82 ± 4.6 µM	
